Our source for the IC50 values is ChEMBL document CHEMBL3886983, “Pyridinyl and pyrimidinyl sulfoxide and sulfone derivatives” (2016).

The target of the test is Nicotinamide phosphoribosyltransferase (Homo sapiens, UniProt P43490). Nature of the test: Biochemical Inhibition Assay: The NAMPT Enzymatic Reaction. The NAMPT enzymatic reactions were carried out in Buffer A (50 mM Hepes pH 7.5, 50 mM NaCl, 5 mM MgCl2, and 1 mM THP) in 96-well V-bottom plates. The compound titrations were performed in a separate dilution plate by serially diluting the compounds in DMSO to make a 100x stock. Buffer A (89 uL) containing 33 nM of NAMPT protein was added to 1 uL of 100x compound plate containing controls (e.g. DMSO or blank). The compound and enzyme mixture was incubated for 15 min at rt, then 10 uL of 10x substrate and co-factors in Buffer A were added to the test well to make a final concentration of 1 uM NAM, […] 5-Phospho-D-ribose 1-diphosphate (PRPP), and 2.5 mM Adenosine 5'-triphosphate (ATP). The reaction was allowed to proceed for 30 min at rt, then was quenched with the addition of 11 uL of a solution of formic acid and L-Cystathionine to make a final concentration of 1% formic acid and 10 uM L-Cystathionine. Background and signal strength was determined by addition (or non-addition) of a serial dilution of NMN to a pre-quenched enzyme and cofactor mix.
Nicotinamide phosphoribosyltransferase, sequence (P43490 whole entry): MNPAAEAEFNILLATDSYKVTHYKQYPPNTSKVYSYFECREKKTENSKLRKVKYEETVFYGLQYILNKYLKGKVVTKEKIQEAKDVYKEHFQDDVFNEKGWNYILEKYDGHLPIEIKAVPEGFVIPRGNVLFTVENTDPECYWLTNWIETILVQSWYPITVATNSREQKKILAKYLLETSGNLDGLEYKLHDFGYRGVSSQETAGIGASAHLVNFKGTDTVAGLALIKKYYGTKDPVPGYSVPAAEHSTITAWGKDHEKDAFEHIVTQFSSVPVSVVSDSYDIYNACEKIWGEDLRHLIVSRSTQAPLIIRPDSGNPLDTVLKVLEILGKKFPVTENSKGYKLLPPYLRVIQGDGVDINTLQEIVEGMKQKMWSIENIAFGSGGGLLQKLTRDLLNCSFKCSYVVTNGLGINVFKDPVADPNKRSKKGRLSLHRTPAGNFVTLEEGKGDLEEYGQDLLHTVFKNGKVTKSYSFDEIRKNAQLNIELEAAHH

Turning to `CN1CCN(c2ccc(S(=O)(=O)c3ccc(CNC(=O)c4cc5ccncc5o4)nc3)cn2)CC1`, the IC50 was found to be 0.916 nM.
